The values below come from ChEMBL document CHEMBL1201862, “PubChem BioAssay data set” (2004).

Some test systems named below: OVCAR-4; CAKI-1; SF-539; OVCAR-5; MDA-MB-435; 786-0; OVCAR-8; A498; NCI-H23; HCT-116; CCRF-CEM; NCI-H522; BT-549; K562; MOLT-4; SK-MEL-28; HL-60; SF-268; MCF7; SNB-75.
Holding throughout (assay): NCI tumour cell line growth inhibition, 48 h

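Step 1: Grow cells in 96-well plates. Step 2: Expose to compound for 48 hours at 5 concentrations. Step 3: Interpolate endpoints linearly; if unreached, use highest concentration. The concentration for 50% growth inhibition is given as GI50.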 Active and inactive are the calls of the source. Cut-off read from the data, not from the text of the source: active = GI50 up to about 1.1 µM and inactive = higher. Where only a bound is given, the exact number is not on record here.

For the molecule `Clc1ccc(/C=N/C23CC4CC(CC(C4)C2)C3)cc1Cl`, the GI50 with OVCAR-4, with CAKI-1, with SF-539, with OVCAR-5, in the test with MDA-MB-435 and in the test on 786-0 was > 10 µM (inactive) in each case. Moreover, the GI50 in the test on OVCAR-8, in the test with A498, in the test on NCI-H23, with HCT-116, in the test with CCRF-CEM and with NCI-H522 was > 10 µM (inactive) each time. Also, the GI50 in the test with BT-549, in the test with K562, in the test with MOLT-4, with SK-MEL-28, with HL-60 and in the test with SF-268 was > 10 µM (inactive) throughout. The GI50 with MCF7 and in the test on SNB-75 was > 10 µM (inactive) in each case.
For `COC(=O)c1cc(C#N)[nH]c1-c1cc(Br)cs1`, the GI50 was 4.54 µM (inactive) in the test with OVCAR-4; 17.5 µM (inactive) in the test on CAKI-1; 14.3 µM (inactive) with SF-539; 16.3 µM (inactive) in the test on OVCAR-5; 13.3 µM (inactive) with MDA-MB-435; 19.1 µM (inactive) in the test with 786-0. Moreover, the GI50 in the test with OVCAR-8 was 14.7 µM (inactive); with A498 it was 4.97 µM (inactive); with NCI-H23 it was 6.67 µM (inactive); in the test with HCT-116 it was 12.8 µM (inactive); with CCRF-CEM, 13.8 µM (inactive); in the test with NCI-H522, 2.1 µM (inactive). The GI50 in the test on BT-549 is 12.9 µM (inactive); with K562, 20.3 µM (inactive); in the test on MOLT-4, 17.9 µM (inactive); in the test on SK-MEL-28, 14.5 µM (inactive); in the test with HL-60 it was 13.2 µM (inactive); with SF-268, 17.7 µM (inactive). The GI50 is 7.24 µM (inactive) in the test with MCF7 and 2.69 µM (inactive) with SNB-75.
With `O=C1Nc2ccccc2/C1=N/Nc1ccc([N+](=O)[O-])cc1`, the GI50 was 14.4 µM (inactive) with OVCAR-4; 15.5 µM (inactive) with CAKI-1; 3.83 µM (inactive) in the test with SF-539; 20.4 µM (inactive) in the test on OVCAR-5; 40.3 µM (inactive) in the test on MDA-MB-435; 13.8 µM (inactive) in the test with 786-0. Also, the GI50 is 11.5 µM (inactive) with OVCAR-8; 15.2 µM (inactive) in the test on A498; 21.5 µM (inactive) in the test on NCI-H23; 20.7 µM (inactive) with HCT-116; 22.4 µM (inactive) in the test with CCRF-CEM; 11.1 µM (inactive) in the test with NCI-H522. Besides, the GI50 in the test on BT-549 was 16.5 µM (inactive); in the test on K562, 17 µM (inactive); in the test with MOLT-4 it was 21.1 µM (inactive); in the test on SK-MEL-28, 41.3 µM (inactive); with HL-60, 15.1 µM (inactive); with SF-268, 10.4 µM (inactive). Moreover, the GI50 in the test with MCF7 is 37.8 µM (inactive); with SNB-75, 12.3 µM (inactive).
On to `Cc1cnc2nc(-c3ccc(Cl)cc3)cc(O)c2c1`, for which the GI50 in the test on OVCAR-4 is 19.1 µM (inactive); in the test with CAKI-1, 5.33 µM (inactive); in the test with SF-539 it was 2.37 µM (inactive); with OVCAR-5, 11.1 µM (inactive); in the test with MDA-MB-435, 0.47 µM (active); with 786-0, 6.17 µM (inactive). For the same molecule, the GI50 with OVCAR-8 was 9.14 µM (inactive); with A498, 5.48 µM (inactive); with NCI-H23, 29.4 µM (inactive); in the test with HCT-116 it was 3.84 µM (inactive); in the test on CCRF-CEM it was 4.44 µM (inactive); with NCI-H522 it was 5.47 µM (inactive). Moreover, the GI50 in the test with BT-549 is 9.95 µM (inactive); with K562, 1.07 µM (active); in the test on MOLT-4 it was 3.31 µM (inactive); in the test on SK-MEL-28, > 22.9 µM (inactive); with HL-60, 1.87 µM (inactive); in the test on SF-268, 19.7 µM (inactive). In addition, the GI50 in the test with MCF7 is 4.48 µM (inactive); in the test on SNB-75, 5.14 µM (inactive).
As for `Cn1nnc2c(C(N)=S)ncn2c1=O`, the GI50 in the test with OVCAR-4, with CAKI-1, with SF-539, in the test with OVCAR-5, in the test on MDA-MB-435 and in the test on 786-0 was > 100 µM (inactive) each time. The GI50 in the test with OVCAR-8, in the test with A498, in the test on NCI-H23, with HCT-116, in the test on CCRF-CEM and with NCI-H522 was > 100 µM (inactive) each time. Further, the GI50 in the test with BT-549, in the test with K562, with MOLT-4, in the test on SK-MEL-28, with HL-60 and with SF-268 was > 100 µM (inactive) in each case. The GI50 in the test on MCF7 and with SNB-75 was > 100 µM (inactive) throughout.
In the case of `O=C(NCCCCCCNC(=O)c1cccc2ccccc12)Nc1cccc2ccccc12`, the GI50 in the test with OVCAR-4, in the test on CAKI-1, in the test with SF-539, in the test on OVCAR-5, with MDA-MB-435 and in the test on 786-0 was > 100 µM (inactive) throughout. The GI50 with OVCAR-8, in the test with A498, in the test with NCI-H23, with HCT-116, in the test on CCRF-CEM and with NCI-H522 was > 100 µM (inactive) throughout. Further, the GI50 in the test on BT-549, in the test with K562, in the test with MOLT-4, with SK-MEL-28, in the test with HL-60 and with SF-268 was > 100 µM (inactive) each time. The GI50 in the test on MCF7 and in the test on SNB-75 was > 100 µM (inactive) each time.
As for `O=C1C(Cl)=C(N2CCN(C3=C(Cl)C(=O)c4ccccc4C3=O)CC2)C(=O)c2ccccc21`, the GI50 is 1.58 µM (inactive) in the test with OVCAR-4; 1.79 µM (inactive) with CAKI-1; 1.73 µM (inactive) with SF-539; 6.64 µM (inactive) in the test on OVCAR-5; 1.86 µM (inactive) in the test on MDA-MB-435; 1.82 µM (inactive) in the test on 786-0. The GI50 in the test with OVCAR-8 was 1.69 µM (inactive); in the test with A498, 3.49 µM (inactive); in the test on NCI-H23 it was 1.58 µM (inactive); with HCT-116, 1.44 µM (inactive); in the test with CCRF-CEM, 0.162 µM (active); in the test on NCI-H522, 0.652 µM (active). Besides, the GI50 was 1.73 µM (inactive) in the test on BT-549; 0.121 µM (active) in the test on K562; 0.232 µM (active) in the test with MOLT-4; 1.94 µM (inactive) with SK-MEL-28; 0.0841 µM (active) with HL-60; 2.62 µM (inactive) with SF-268. For the same molecule, the GI50 in the test with MCF7 was 1.72 µM (inactive); in the test on SNB-75 it was 2.86 µM (inactive).
Consider `O=C1C(OC(=O)c2ccccc2)=C(c2ccc(O)cc2)C(=O)C(OC(=O)c2ccccc2)=C1c1ccc(O)cc1`, for which the GI50 was 51.9 µM (inactive) in the test on OVCAR-4; > 100 µM (inactive) with CAKI-1; > 100 µM (inactive) with SF-539; > 100 µM (inactive) with OVCAR-5; > 100 µM (inactive) in the test with MDA-MB-435; > 100 µM (inactive) with 786-0. Moreover, the GI50 with OVCAR-8 was > 100 µM (inactive); with A498 it was > 100 µM (inactive); in the test with NCI-H23, > 100 µM (inactive); with HCT-116, > 100 µM (inactive); in the test on CCRF-CEM it was 42.9 µM (inactive); in the test on NCI-H522, > 100 µM (inactive). Further, the GI50 with BT-549 is > 100 µM (inactive); with K562, > 100 µM (inactive); in the test with MOLT-4, 36 µM (inactive); with SK-MEL-28 it was > 100 µM (inactive); in the test on HL-60, > 100 µM (inactive); in the test on SF-268, > 100 µM (inactive). The values for the GI50 in the test with MCF7 and in the test with SNB-75 were > 100 µM (inactive) and 78.5 µM (inactive), respectively.
Regarding `NC(=O)C(Nc1c(Cl)cccc1Cl)c1cc2cc(Br)ccc2nc1Cl` (stereo not given), the GI50 was 46.3 µM (inactive) with OVCAR-4; 76.6 µM (inactive) in the test on CAKI-1; 41.7 µM (inactive) with SF-539; > 100 µM (inactive) in the test on OVCAR-5; 19.5 µM (inactive) in the test with MDA-MB-435; > 100 µM (inactive) in the test with 786-0. Besides, the GI50 was 80.7 µM (inactive) with OVCAR-8; > 100 µM (inactive) in the test with A498; 44.6 µM (inactive) with NCI-H23; 41.9 µM (inactive) in the test on HCT-116; 33.2 µM (inactive) in the test with CCRF-CEM; 25.9 µM (inactive) with NCI-H522. The GI50 with BT-549 was 36.8 µM (inactive); with K562, 29.4 µM (inactive); in the test on MOLT-4, 20.7 µM (inactive); with SK-MEL-28, > 100 µM (inactive); in the test on HL-60, 28.4 µM (inactive); with SF-268, 49.8 µM (inactive). The GI50 in the test on MCF7 was 30.1 µM (inactive); in the test with SNB-75, > 100 µM (inactive).
Regarding `Cc1nc2ccccc2nc1-c1ccc(/N=[N+](\[O-])c2ccc(-c3nc4ccccc4nc3C)cc2)cc1`, the GI50 was > 100 µM (inactive) in the test on OVCAR-4; > 100 µM (inactive) in the test with CAKI-1; > 50.5 µM (inactive) with SF-539; > 100 µM (inactive) with OVCAR-5; > 100 µM (inactive) in the test with MDA-MB-435; 45.5 µM (inactive) in the test with 786-0. For the same molecule, the GI50 in the test with OVCAR-8 was 50.1 µM (inactive); in the test on A498, > 53.2 µM (inactive); with NCI-H23, > 83.4 µM (inactive); in the test on HCT-116, > 79.8 µM (inactive); in the test with CCRF-CEM, > 100 µM (inactive); in the test on NCI-H522, > 63.4 µM (inactive). The GI50 with BT-549 was > 85.9 µM (inactive); in the test on K562 it was > 100 µM (inactive); in the test on MOLT-4, > 100 µM (inactive); in the test on SK-MEL-28, > 100 µM (inactive); in the test on HL-60, > 100 µM (inactive); with SF-268 it was 36.6 µM (inactive). Moreover, the GI50 in the test with MCF7 was > 100 µM (inactive); in the test with SNB-75, 21 µM (inactive).
